ChEMBL document CHEMBL1146171, “Discovery and initial development of a novel class of antibacterials: inhibitors of Staphylococcus aureus transcription/translation” (Bioorg Med Chem Lett, 2006)
Values after ≈ are worked out from the molar mass of the structure shown.

Columns and labels:
Type in all cases: functional
Staphylococcus aureus [1] = test: Antibacterial activity against Staphylococcus aureus
Staphylococcus aureus [2] = test: Inhibition of coupled transcription/translation in Staphylococcus aureus at 100 uM; details: for IC50 / inhibition at 100 µM: Staphylococcus aureus
Staphylococcus aureus [3] = test: Inhibition of coupled transcription/translation in Staphylococcus aureus at 30 uM
[4] = Staphylococcus aureus, read-out: MIC

SMILES: O=C(Nc1ccc(Br)cc1C(=O)O)c1ccc(S(=O)(=O)N2CCc3cc(Cl)ccc32)cc1
- MIC (Staphylococcus aureus [1]; [4]): 1 µg/mL (≈ 1.87 µM)
- IC50 (Staphylococcus aureus [2]): 80 µM
- inhibition at 100 µM (Staphylococcus aureus [2]): 71%

SMILES: O=C(Nc1ccc(Br)cc1C(=O)O)c1ccc(S(=O)(=O)N2CCC[C@@H]2CO)cc1
- MIC (Staphylococcus aureus [1]; [4]): > 128 µg/mL
- inhibition at 100 µM (Staphylococcus aureus [2]): 19%

SMILES: CCCN(CCC)S(=O)(=O)c1ccc(C(=O)Nc2cc3ccccc3cc2C(=O)O)cc1
- MIC (Staphylococcus aureus [1]; [4]): 64 µg/mL (≈ 141 µM)
- inhibition at 100 µM (Staphylococcus aureus [2]): 30%

SMILES: CCCN(CCC)S(=O)(=O)c1ccc(C(=O)Nc2ccc3ccccc3c2)cc1
- MIC (Staphylococcus aureus [1]; [4]): > 128 µg/mL
- inhibition at 100 µM (Staphylococcus aureus [2]): 10%

SMILES: O=C(Nc1ccc(Br)cc1C(=O)O)c1ccc(S(=O)(=O)N2CCCC23CCC(O)CC3)cc1 (stereo unspecified)
- MIC (Staphylococcus aureus [1]; [4]): 8 µg/mL (≈ 14.9 µM)
- inhibition at 100 µM (Staphylococcus aureus [2]): 22%

SMILES: CN(c1ccc(Cl)cc1)S(=O)(=O)c1ccc(C(=O)Nc2cc(Cl)ccc2C(=O)O)cc1
- MIC (Staphylococcus aureus [1]; [4]): 64 µg/mL (≈ 134 µM)
- inhibition at 100 µM (Staphylococcus aureus [2]): 47%

SMILES: CCCN(CCC)S(=O)(=O)c1ccc(C(=O)Nc2c(OC)cc(OC)cc2C(=O)O)cc1
- MIC (Staphylococcus aureus [1]; [4]): > 128 µg/mL
- inhibition at 100 µM (Staphylococcus aureus [2]): 0%

SMILES: O=C(Nc1ccc(Br)cc1C(=O)O)c1ccc(S(=O)(=O)N2CCc3ccc(Cl)cc32)cc1
- MIC (Staphylococcus aureus [1]): 0.5 µg/mL (≈ 0.933 µM)
- MIC (Staphylococcus aureus [1]; [4]): 1 µg/mL (≈ 1.87 µM)
- inhibition at 30 µM (Staphylococcus aureus [3]): 93%
- IC50 (Staphylococcus aureus [2]): 40 µM
- inhibition at 100 µM (Staphylococcus aureus [2]): 96%

SMILES: O=C(Nc1cc(F)c(F)cc1C(=O)O)c1ccc(S(=O)(=O)Nc2cccc(C(F)(F)F)c2)cc1
- MIC (Staphylococcus aureus [1]; [4]): > 128 µg/mL
- inhibition at 100 µM (Staphylococcus aureus [2]): 55%

SMILES: CCCN(c1ccccc1)S(=O)(=O)c1ccc(C(=O)Nc2ccc(I)cc2C(=O)O)cc1
- MIC (Staphylococcus aureus [1]; [4]): 16 µg/mL (≈ 28.3 µM)
- inhibition at 100 µM (Staphylococcus aureus [2]): 90%

SMILES: Cc1cc(Br)ccc1NC(=O)c1ccc(S(=O)(=O)N(C)c2ccc(Cl)cc2)cc1
- MIC (Staphylococcus aureus [1]; [4]): > 128 µg/mL
- inhibition at 100 µM (Staphylococcus aureus [2]): 12%

SMILES: O=C(Nc1ccc(Br)cc1C(=O)O)c1ccc(S(=O)(=O)N2CCC(Cc3ccccc3)CC2)cc1
- MIC (Staphylococcus aureus [1]; [4]): 16 µg/mL (≈ 28.7 µM)
- IC50 (Staphylococcus aureus [2]): 28 µM
- inhibition at 100 µM (Staphylococcus aureus [2]): 98%

SMILES: O=C(Nc1ccc(Br)cc1C(=O)O)c1ccc(S(=O)(=O)Nc2cccc(C(F)(F)F)c2)cc1
- MIC (Staphylococcus aureus [1]; [4]): 8 µg/mL (≈ 14.7 µM)
- inhibition at 100 µM (Staphylococcus aureus [2]): 65%

SMILES: Cc1ccc(C(=O)Nc2ccc(Br)cc2C(=O)O)cc1S(=O)(=O)NC1Cc2ccccc2C1
- MIC (Staphylococcus aureus [1]; [4]): 0.25 µg/mL (≈ 0.472 µM)
- inhibition at 30 µM (Staphylococcus aureus [3]): 20%

SMILES: O=C(Nc1ccc(Br)cc1C(=O)O)c1ccc(S(=O)(=O)N2CCc3ccccc3C2)cc1
- MIC (Staphylococcus aureus [1]; [4]): 8 µg/mL (≈ 15.5 µM)
- IC50 (Staphylococcus aureus [2]): 60 µM
- inhibition at 100 µM (Staphylococcus aureus [2]): 84%

SMILES: N#Cc1cccc(NS(=O)(=O)c2ccc(C(=O)Nc3ccc(Br)cc3C(=O)O)cc2)c1
- MIC (Staphylococcus aureus [1]; [4]): 64 µg/mL (≈ 128 µM)
- inhibition at 100 µM (Staphylococcus aureus [2]): 30%

SMILES: O=C(Nc1ccc(Br)cc1C(=O)O)c1ccc(S(=O)(=O)N2CCCC23CCCCC3)cc1
- MIC (Staphylococcus aureus [1]; [4]): 4 µg/mL (≈ 7.67 µM)
- IC50 (Staphylococcus aureus [2]): 60 µM
- inhibition at 100 µM (Staphylococcus aureus [2]): 90%

SMILES: CN(c1ccc(Cl)cc1)S(=O)(=O)c1ccc(C(=O)Nc2ccc(Cl)cc2C(=O)O)cc1
- MIC (Staphylococcus aureus [1]; [4]): 16 µg/mL (≈ 33.4 µM)
- inhibition at 100 µM (Staphylococcus aureus [2]): 85%

SMILES: O=C(Nc1ccc(Br)cc1C(=O)O)c1ccc(S(=O)(=O)N2CC3CCCC(C3)C2)cc1
- MIC (Staphylococcus aureus [1]; [4]): 4 µg/mL (≈ 7.88 µM)
- IC50 (Staphylococcus aureus [2]): 60 µM
- inhibition at 100 µM (Staphylococcus aureus [2]): 88%

SMILES: CCCN(c1ccccc1)S(=O)(=O)c1ccc(C(=O)Nc2ccc(Cl)cc2C(=O)O)cc1
- MIC (Staphylococcus aureus [1]; [4]): 32 µg/mL (≈ 67.7 µM)
- inhibition at 100 µM (Staphylococcus aureus [2]): 50%

SMILES: CC1(c2ccccc2)CCCN(S(=O)(=O)c2ccc(C(=O)Nc3ccc(Br)cc3C(=O)O)cc2)C1 (stereo unspecified)
- MIC (Staphylococcus aureus [1]; [4]): 16 µg/mL (≈ 28.7 µM)
- IC50 (Staphylococcus aureus [2]): 30 µM
- inhibition at 100 µM (Staphylococcus aureus [2]): 96%

SMILES: O=C(Nc1ccc(Br)cc1C(=O)O)c1ccc(S(=O)(=O)Nc2ccc(Cl)cc2)cc1
- MIC (Staphylococcus aureus [1]; [4]): 16 µg/mL (≈ 31.4 µM)
- inhibition at 100 µM (Staphylococcus aureus [2]): 45%

SMILES: O=C(Nc1ccc(Br)cc1C(=O)O)c1ccc(S(=O)(=O)N2Cc3ccccc3C2)cc1
- MIC (Staphylococcus aureus [1]; [4]): 4 µg/mL (≈ 7.98 µM)
- inhibition at 100 µM (Staphylococcus aureus [2]): 77%

SMILES: CCCN(CCC)S(=O)(=O)c1ccc(C(=O)Nc2ccc(Br)cc2C(=O)O)cc1
- MIC (Staphylococcus aureus [1]; [4]): 8 µg/mL (≈ 16.5 µM)
- inhibition at 100 µM (Staphylococcus aureus [2]): 61%

SMILES: CCCN(c1ccccc1)S(=O)(=O)c1ccc(C(=O)Nc2ccc(Br)cc2C(=O)O)cc1
- MIC (Staphylococcus aureus [1]; [4]): 16 µg/mL (≈ 30.9 µM)
- inhibition at 100 µM (Staphylococcus aureus [2]): 80%

SMILES: O=C(Nc1ccc(Br)cc1C(=O)O)c1cc(S(=O)(=O)Nc2ccc3c(c2)OCCO3)ccc1Br
- MIC (Staphylococcus aureus [1]; [4]): 0.5 µg/mL (≈ 0.817 µM)
- inhibition at 30 µM (Staphylococcus aureus [3]): 15%

SMILES: CN(c1ccc(Cl)cc1)S(=O)(=O)c1ccc(C(=O)Nc2ccc(Br)cc2C(=O)O)cc1
- MIC (Staphylococcus aureus [1]): 16 µg/mL (≈ 30.5 µM)
- MIC (Staphylococcus aureus [1]; [4]): 8 µg/mL (≈ 15.3 µM)
- Inhibition (Staphylococcus aureus [2]): 80%
- inhibition at 100 µM (Staphylococcus aureus [2]): 75%

SMILES: COC(=O)c1cc(Br)ccc1NC(=O)c1ccc(S(=O)(=O)Nc2cccc(OCc3ccccc3)c2)cc1
- MIC (Staphylococcus aureus [1]; [4]): > 128 µg/mL
- inhibition at 100 µM (Staphylococcus aureus [2]): 4%

SMILES: O=C(Nc1ccc(Br)cc1C(=O)O)c1ccc(S(=O)(=O)N2CCC(c3ccccc3)CC2)cc1
- MIC (Staphylococcus aureus [1]; [4]): 8 µg/mL (≈ 14.7 µM)
- IC50 (Staphylococcus aureus [2]): 55 µM
- inhibition at 100 µM (Staphylococcus aureus [2]): 96%

SMILES: COc1ccc(N(C)S(=O)(=O)c2ccc(C(=O)Nc3ccc(Br)cc3C(=O)O)cc2)cc1
- MIC (Staphylococcus aureus [1]; [4]): 32 µg/mL (≈ 61.6 µM)
- inhibition at 100 µM (Staphylococcus aureus [2]): 50%

SMILES: CCCN(CCC)S(=O)(=O)c1ccc(C(=O)Nc2cc3ccccc3cc2O)cc1
- MIC (Staphylococcus aureus [1]; [4]): > 128 µg/mL
- inhibition at 100 µM (Staphylococcus aureus [2]): 10%

SMILES: O=C(Nc1ccc(Br)cc1C(=O)O)c1ccc(S(=O)(=O)Nc2cccc(OCc3ccccc3)c2)cc1
- MIC (Staphylococcus aureus [1]; [4]): 8 µg/mL (≈ 13.8 µM)
- inhibition at 100 µM (Staphylococcus aureus [2]): 75%

SMILES: O=C(Nc1ccc(Br)cc1C(=O)O)c1ccc(S(=O)(=O)N2CCC(Nc3ccccc3)CC2)cc1
- MIC (Staphylococcus aureus [1]; [4]): 32 µg/mL (≈ 57.3 µM)
- inhibition at 100 µM (Staphylococcus aureus [2]): 62%

SMILES: CN(c1ccc(Cl)cc1)S(=O)(=O)c1ccc(C(=O)Nc2ccc(Cl)c(C(=O)O)c2)cc1
- MIC (Staphylococcus aureus [1]; [4]): > 128 µg/mL
- inhibition at 100 µM (Staphylococcus aureus [2]): 10%

SMILES: CC1(C)Cc2ccccc2N1S(=O)(=O)c1ccc(C(=O)Nc2ccc(Br)cc2C(=O)O)cc1
- MIC (Staphylococcus aureus [1]; [4]): 2 µg/mL (≈ 3.78 µM)
- IC50 (Staphylococcus aureus [2]): 55 µM
- inhibition at 100 µM (Staphylococcus aureus [2]): 87%

SMILES: COc1ccc(NC(=O)c2ccc(S(=O)(=O)Nc3cccc(C(F)(F)F)c3)cc2)c(C(=O)O)c1
- MIC (Staphylococcus aureus [1]; [4]): > 128 µg/mL
- inhibition at 100 µM (Staphylococcus aureus [2]): 35%

SMILES: O=C(Nc1ccc(Br)cc1C(=O)O)c1cc(S(=O)(=O)NC2Cc3ccccc3C2)ccc1Br
- MIC (Staphylococcus aureus [1]; [4]): 0.25 µg/mL (≈ 0.421 µM)
- inhibition at 30 µM (Staphylococcus aureus [3]): 30%

SMILES: O=C(Nc1ccc(Br)cc1C(=O)O)c1ccc(S(=O)(=O)N2CC3CCC2CC3)cc1
- MIC (Staphylococcus aureus [1]; [4]): 8 µg/mL (≈ 16.2 µM)
- inhibition at 100 µM (Staphylococcus aureus [2]): 57%

SMILES: O=C(Nc1ccc(Br)cc1C(=O)O)c1ccc(S(=O)(=O)N2CCCCC2)cc1
- MIC (Staphylococcus aureus [1]; [4]): 16 µg/mL (≈ 34.2 µM)
- Inhibition (Staphylococcus aureus [2]): 35%

SMILES: CN(c1ccc(Cl)cc1)S(=O)(=O)c1ccc(C(=O)Nc2ccc(F)cc2C(=O)O)cc1
- MIC (Staphylococcus aureus [1]; [4]): > 128 µg/mL
- inhibition at 100 µM (Staphylococcus aureus [2]): 30%

SMILES: Cl.O=C(Nc1ccc(Br)cc1C(=O)O)c1ccc(S(=O)(=O)N2CCCCC2)cc1
- MIC (Staphylococcus aureus [1]; [4]): 16 µg/mL
- inhibition at 100 µM (Staphylococcus aureus [2]): 34%

SMILES: COc1cccc(NS(=O)(=O)c2ccc(C(=O)Nc3ccc(Br)cc3C(=O)O)cc2)c1
- MIC (Staphylococcus aureus [1]; [4]): 16 µg/mL (≈ 31.7 µM)
- inhibition at 100 µM (Staphylococcus aureus [2]): 20%

SMILES: CCCN(c1ccccc1)S(=O)(=O)c1ccc(C(=O)Nc2ccc(C)cc2C(=O)O)cc1
- MIC (Staphylococcus aureus [1]; [4]): 128 µg/mL (≈ 283 µM)
- inhibition at 100 µM (Staphylococcus aureus [2]): 34%

SMILES: COCCN(CCOC)S(=O)(=O)c1ccc(C(=O)Nc2ccc(Br)cc2C(=O)O)cc1
- MIC (Staphylococcus aureus [1]; [4]): 32 µg/mL (≈ 62.1 µM)
- inhibition at 100 µM (Staphylococcus aureus [2]): 10%
